Laboratory results from PubChem BioAssay (NCI).
Where “and” joins values, the source holds several entries; their conditions need not be identical. Identical values can stand only once.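 The compound was tested at five concentrations on cells cultured in 96-well plates, with a 48-hour exposure period. GI50 = concentration required for 50% inhibition of growth. TGI: total growth inhibition.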

What was measured:
Test in all cases: NCI tumour cell line growth inhibition, 48 h
[1] = system: MCF7 breast
[2] = system: MDA-MB-231 breast
[3] = system: SF-539 CNS
[4] = system: HCT-116 colon
[5] = system: CAKI-1 renal
[6] = system: OVCAR-5 ovarian
[7] = system: K-562 leukemia
[8] = system: SF-268 CNS
[9] = system: A549 NSCLC
[10] = system: RPMI-8226 leukemia

Row | SMILES | GI50 [1] | TGI [1] | GI50 [2] | TGI [2] | GI50 [3] | TGI [3] | GI50 [4] | TGI [4] | GI50 [5] | TGI [5] | GI50 [6] | TGI [6] | GI50 [7] | TGI [7] | GI50 [8] | TGI [8] | GI50 [9] | TGI [9] | GI50 [10] | TGI [10]
1 | COC(=O)c1cc2c([nH]c3ccccc32)c(-c2nc3cc(N(S(=O)(=O)c4ccc(C)cc4)S(=O)(=O)c4ccc(C)cc4)c(OC)cc3cc2CO)n1 | > 100 µM | > 100 µM | 78.6 µM | > 100 µM | 56.1 µM | > 100 µM | > 100 µM | > 100 µM | > 100 µM | > 100 µM | > 100 µM | > 100 µM | > 100 µM | > 100 µM | > 100 µM | > 100 µM | > 100 µM | > 100 µM | – | –
2 | Cc1ccc(S(=O)(=O)NC(CCCCN)C(=O)CCl)cc1 (stereo not given) | 57.9 µM | > 100 µM | > 100 µM | > 100 µM | 22.3 µM | 53.6 µM | 90.7 µM | > 100 µM | 37.8 µM | > 100 µM | > 100 µM | > 100 µM | 38.7 µM | > 100 µM | 67.5 µM | > 100 µM | > 100 µM | > 100 µM | – | –
3 | COCC(O)CN1C(N)=NC(O)C1O (stereo not given) | – | – | – | – | – | > 100 µM | – | – | – | > 100 µM | – | > 100 µM | – | – | – | > 100 µM | – | > 100 µM | – | –
4 | Cc1nc2cc(NC(=O)CN3CCN(CCN4C(=O)c5cccc6cccc(c56)C4=O)CC3)ccc2s1 | 4.08 µM | 15.5 µM | 11.7 µM | > 100 µM | 7.59 µM | > 100 µM | 2.94 µM | 14.7 µM | 4.32 µM | > 100 µM | 14.1 µM | > 100 µM | – | – | 5.01 µM | 24.9 µM | 4.14 µM | 19.2 µM | 2.91 µM | 15.2 µM
5 | CCN(CC)CC(C(=O)Nc1c(C)cccc1C)/C(C)=N/NC(N)=S (stereo not given) | – | – | – | – | – | > 100 µM | – | > 100 µM | – | – | – | > 100 µM | – | > 100 µM | – | > 100 µM | – | > 100 µM | – | > 100 µM
6 | Cc1cc(N2CCOCC2)nc(N(CCNc2ccnc3cc(Cl)ccc23)Cc2cccs2)n1 | 1.97 µM | 4.68 µM | 1.97 µM | 3.64 µM | 1.81 µM | 3.32 µM | – | – | – | – | 2.19 µM | 4.73 µM | 1.67 µM | 3.98 µM | 3.27 µM | 10.6 µM | 3.08 µM | 12 µM | 1.87 µM | 4.04 µM
7 | Cc1cn2cc(-c3ccncc3)nc2s1 | – | – | – | – | – | > 100 µM | – | > 100 µM | – | > 100 µM | – | > 100 µM | – | > 100 µM | – | > 100 µM | – | > 100 µM | – | > 90.2 µM
8 | COc1ccc(/C=C2\CN(Cc3cn(CCCNc4ccnc5cc(Cl)ccc45)nn3)C/C(=C\c3ccc(OC)cc3)C2=O)cc1 | 2.01 µM | 10.1 µM | 5.39 µM | 28.4 µM | 13.9 µM | 26.8 µM | 2.8 µM | 12.4 µM | – | – | 21 µM | 44.2 µM | 2.65 µM | 11.7 µM | 3.45 µM | 16.9 µM | 5.07 µM | 19.5 µM | 2.22 µM | 10.3 µM
9 | O=C(Nc1cccc(Cl)c1)c1cc2cc(N=Nc3ccc(Br)cc3)ccc2oc1=O | – | – | – | – | – | > 100 µM | – | > 100 µM | – | > 100 µM | – | 58 µM | – | > 100 µM | – | > 100 µM | – | > 100 µM | – | > 100 µM
10 | CC/C(=C(\c1ccccc1)c1ccc(OCC[N+](C)(C)C)cc1)c1ccccc1 | – | – | – | – | – | 40.6 µM | – | 31.7 µM | – | 32.2 µM | – | – | – | 19.9 µM | – | 32.4 µM | – | 35.3 µM | – | 28.8 µM
11 | COc1ccc(C(=O)CC(Cl)=C(Cl)Cl)cc1 | 53.4 µM | > 100 µM | 33.1 µM | > 100 µM | 37.2 µM | > 100 µM | 22.2 µM | 63.4 µM | 23.2 µM | 53.5 µM | 22.6 µM | 50.4 µM | – | – | 38.2 µM | > 100 µM | > 100 µM | > 100 µM | 23.5 µM | 68.5 µM
12 | Cc1ccc(CCNC(=S)SCC(NC(=O)CCC(N)C(=O)O)C(=O)NCC(=O)O)cc1 (stereo not given) | – | – | – | – | – | 2.97 µM | – | 6.26 µM | – | 3.44 µM | – | 6.11 µM | – | 2.5 µM | – | 8.29 µM | – | 13.4 µM | – | 1.43 µM
13 | O=C(CN1C(=O)c2ccccc2C1=O)NC1(C(=O)O)CCCC1 | – | > 100 µM | – | > 100 µM | – | – | – | > 100 µM | – | > 100 µM | – | > 100 µM | – | > 100 µM | – | > 100 µM | – | > 100 µM | – | > 100 µM
14 | Oc1ccc(-c2nc(-c3ccc4oc5ccc(-c6[nH]c(-c7ccc(O)cc7)nc6-c6ccccc6)cc5c4c3)c(-c3ccccc3)[nH]2)cc1 | 2.99 µM | 73.9 µM | 2.57 µM | 7.46 µM | 4.17 µM | 21.3 µM | 3.85 µM | > 100 µM | 13.7 µM | 41.7 µM | 12.1 µM | 25.4 µM | – | – | 5.57 µM | 65.3 µM | 4.26 µM | 25.5 µM | 3.17 µM | > 100 µM
15 | CC(=O)OC12CCCCC1C1(CCCC1)NC2=O (stereo not given) | – | – | – | – | – | > 100 µM | – | > 100 µM | – | – | – | > 100 µM | – | > 100 µM | – | > 100 µM | – | > 100 µM | – | > 100 µM
16 | COc1cccc2c1C(=N)c1c(O)c3c(c(O)c1C2=O)C[C@@](O)(C(C)=O)C[C@@H]3OC1CC(N)C(O)C(C)O1 (stereo not given in full) | – | 24.8 µM and 13.4 µM | 0.445 µM | 2.18 µM | – | – | – | 1.77 µM and 2.53 µM and 10.4 µM | – | 1.37 µM and 1.03 µM and 4.86 µM | – | – | – | 3.34 µM and 14.8 µM and 6.67 µM | – | 3.07 µM and 4.61 µM and 5.69 µM | – | 0.926 µM and 1.46 µM and 1.01 µM | – | –
17 | Nc1n[nH]c(=O)c2c1c(Br)cn2C1OC(CO)C(O)C1O (stereo not given) | – | – | – | – | – | 25.8 µM | – | > 40.6 µM | – | > 100 µM | – | 44 µM | – | > 100 µM | – | 55.4 µM | – | > 100 µM | – | 22.5 µM
18 | O=C1c2ccccc2CC1C1(O)C(=O)Nc2c(Cl)cc(Cl)cc21 (stereo not given) | – | – | – | – | – | – | – | – | – | > 100 µM | – | > 100 µM | – | > 100 µM | – | > 100 µM | – | > 100 µM | – | > 100 µM
